Reference: ChEMBL document CHEMBL6134848, “Deuteration Strategy-Inspired Design of Novel Diarylpyrimidine Derivatives as Potent Non-Nucleoside Reverse Transcriptase Inhibitors Featuring Improved Efficacy, Selectivity, and Druggability” (J Med Chem, 2025)

Experiments:
[1] = tested on: Human immunodeficiency virus 1; assay: Antiviral activity against drug-resistant HIV-1 harboring RT K103N mutant infected in human MT4 cells assessed as protection against virus-induced cytopathicity measured after 5 days post-infection by MTT assay; type: functional, organism-based; details: Human immunodeficiency virus 1, MT4, 120 h
[2] = Cytotoxicity against human MT4 cells assessed as reduction in cell viability by MTT assay; type: toxicity, cell-based
[3] = tested on: Human immunodeficiency virus 1; assay: Antiviral activity against drug-resistant HIV-1 harboring RT RES056 mutant infected in human MT4 cells assessed as protection against virus-induced cytopathicity measured after 5 days post-infection by MTT assay; type: functional, organism-based; details: Human immunodeficiency virus 1, MT4, 120 h
[4] = tested on: Human immunodeficiency virus 1; assay: Antiviral activity against drug-resistant HIV-1 harboring RT Y188L mutant infected in human MT4 cells assessed as protection against virus-induced cytopathicity measured after 5 days post-infection by MTT assay; type: functional, organism-based; details: Human immunodeficiency virus 1, MT4, 120 h
[5] = tested on: Human immunodeficiency virus 1; assay: Antiviral activity against drug-resistant HIV-1 harboring RT F227L/V106A mutant infected in human MT4 cells assessed as protection against virus-induced cytopathicity measured after 5 days post-infection by MTT assay; type: functional, organism-based; details: Human immunodeficiency virus 1, MT4, 120 h
[6] = tested on: Human immunodeficiency virus 1; assay: Antiviral activity against drug-resistant HIV-1 harboring RT Y181C mutant infected in human MT4 cells assessed as protection against virus-induced cytopathicity measured after 5 days post-infection by MTT assay; type: functional, organism-based; details: Human immunodeficiency virus 1, MT4, 120 h
[7] = Selectivity index, ratio of CC50 for cytotoxicity against human MT4 cells to EC50 for antiviral activity against wild-type HIV-1 IIIB infected in human MT4 cells; type: toxicity, cell-based; details: read-out: Ratio CC50/EC50
[8] = target: Human immunodeficiency virus type 1 reverse transcriptase (Human immunodeficiency virus 1, UniProt Q72547); assay: Inhibition of recombinant wild type HIV-1 reverse transcriptase incubated for 40 mins in presence of poly(rA) template/oligo(dT)16 primer by Pico-Green dye based analysis
[9] = tested on: Human immunodeficiency virus 1; assay: Antiviral activity against drug-resistant HIV-1 harboring RT E138K mutant infected in human MT4 cells assessed as protection against virus-induced cytopathicity measured after 5 days post-infection by MTT assay; type: functional, organism-based; details: Human immunodeficiency virus 1, MT4, 120 h
[10] = tested on: Human immunodeficiency virus 1; assay: Antiviral activity against wild-type HIV-1 IIIB infected in human MT4 cells assessed as protection against virus-induced cytopathicity measured after 5 days post-infection by MTT assay; type: functional, organism-based; details: Human immunodeficiency virus 1, IIIB, MT4, 120 h
[11] = tested on: Human immunodeficiency virus 1; assay: Antiviral activity against drug-resistant HIV-1 harboring RT L100I mutant infected in human MT4 cells assessed as protection against virus-induced cytopathicity measured after 5 days post-infection by MTT assay; type: functional, organism-based; details: Human immunodeficiency virus 1, MT4, 120 h

Structure (SMILES)	EC50 [1]	CC50 [2]	EC50 [3]	EC50 [4]	EC50 [5]	EC50 [6]	selectivity ratio [7]	IC50 [8]	EC50 [9]	EC50 [10]	EC50 [11]
Cc1cc(-c2ccc(C#N)cc2)cc(C)c1Nc1ccnc(Nc2ccc(C#N)cc2)n1	2.88 nM	6110 nM	54.3 nM	40.5 nM	796 nM	7.26 nM	3280	340 nM	8.16 nM	1.86 nM	4.02 nM
[2H]C([2H])([2H])c1cc(C#N)cc(C)c1Oc1nc(NC2CCN(Cc3ccc(S(N)(=O)=O)cc3)CC2)nc2scnc12	4.39 nM	14900 nM	57.6 nM	45.5 nM	181 nM	10.1 nM	5320	150 nM	28.1 nM	2.8 nM	10.9 nM
[2H]C([2H])([2H])c1cc(C#N)cc(C)c1Oc1nc(NC2CCN(Cc3ccc(C(N)=O)cc3)CC2)nc2sccc12	18.1 nM	> 242000 nM	320 nM	94.5 nM	71.5 nM	47.6 nM	> 27200	120 nM	63.5 nM	8.92 nM	29.2 nM
[2H]C([2H])([2H])c1cc(C#N)cc(C)c1Oc1nc(NC2CCN(Cc3ccc(S(N)(=O)=O)cc3)CC2)nc2ccsc12	3.67 nM	178000 nM	217 nM	12 nM	9.97 nM	12.1 nM	31200	190 nM	12.6 nM	5.77 nM	8.56 nM
[2H]C([2H])([2H])c1cc(C#N)cc(C)c1Oc1nc(NC2CCN(Cc3ccc(C(N)=O)cc3)CC2)nc2scnc12	4.31 nM	22000 nM	143 nM	52.9 nM	103 nM	10.4 nM	10800	170 nM	10.4 nM	2.03 nM	13.3 nM
[2H]C([2H])([2H])c1cc(C#N)cc(C([2H])([2H])[2H])c1Oc1nc(NC2CCN(Cc3ccc(S(N)(=O)=O)cc3)CC2)nc2sccc12	4.28 nM	> 225000 nM	141 nM	10.4 nM	8.79 nM	11.2 nM	> 34500	160 nM	19.5 nM	6.53 nM	6.44 nM
[2H]C([2H])([2H])c1cc(C#N)cc(C([2H])([2H])[2H])c1Oc1nc(NC2CCN(Cc3ccc(S(N)(=O)=O)cc3)CC2)nc2scnc12	2.2 nM	17900 nM	86.4 nM	46 nM	46.4 nM	8.05 nM	8290	190 nM	10.3 nM	2.16 nM	10.8 nM
[2H]C([2H])([2H])c1cc(C#N)cc(C([2H])([2H])[2H])c1Oc1nc(NC2CCN(Cc3ccc(S(N)(=O)=O)cc3)CC2)nc2ccccc12	8.7 nM	24300 nM	276 nM	150 nM	59.8 nM	50.7 nM	4440	230 nM	37.4 nM	5.47 nM	16.8 nM
[2H]C([2H])([2H])c1cc(C#N)cc(C([2H])([2H])[2H])c1Oc1nc(NC2CCN(Cc3ccc(C(N)=O)cc3)CC2)nc2scnc12	2.79 nM	21500 nM	166 nM	52.1 nM	161 nM	11.6 nM	9130	160 nM	11.3 nM	2.36 nM	12.8 nM
[2H]C([2H])([2H])c1cc(C#N)cc(C([2H])([2H])[2H])c1Oc1nc(NC2CCN(Cc3ccc(C(N)=O)cc3)CC2)nc2ccccc12	23.6 nM	90200 nM	1390 nM	60.7 nM	186 nM	61.8 nM	12300	210 nM	38.1 nM	7.31 nM	32.9 nM
[2H]C([2H])([2H])c1cc(C#N)cc(C)c1Oc1nc(NC2CCN(Cc3ccc(C(N)=O)cc3)CC2)nc2ccsc12	11.2 nM	> 242000 nM	887 nM	59.9 nM	65.2 nM	65.3 nM	> 18900	150 nM	53.5 nM	12.8 nM	68.2 nM
[2H]C([2H])([2H])c1cc(C#N)cc(C)c1Oc1nc(NC2CCN(Cc3ccc(S(N)(=O)=O)cc3)CC2)nc2sccc12	8.84 nM	> 227000 nM	148 nM	55.5 nM	428 nM	21.2 nM	> 35500	160 nM	49.7 nM	6.39 nM	17.4 nM
[2H]C([2H])([2H])c1cc(C#N)cc(C)c1Oc1nc(NC2CCN(Cc3ccc(S(N)(=O)=O)cc3)CC2)nc2ccccc12	6.92 nM	> 229000 nM	245 nM	54.2 nM	44.3 nM	12.9 nM	> 74600	210 nM	10.6 nM	3.07 nM	8.11 nM
[2H]C([2H])([2H])c1cc(C#N)cc(C([2H])([2H])[2H])c1Oc1nc(NC2CCN(Cc3ccc(C(N)=O)cc3)CC2)nc2ccsc12	6.75 nM	> 241000 nM	1740 nM	57.6 nM	78.2 nM	46.8 nM	> 47200	140 nM	59.8 nM	5.11 nM	44.3 nM
[2H]C([2H])([2H])c1cc(C#N)cc(C([2H])([2H])[2H])c1Oc1nc(NC2CCN(Cc3ccc(C(N)=O)cc3)CC2)nc2sccc12	4.58 nM	> 241000 nM	496 nM	61.6 nM	724 nM	53.8 nM	> 57500	140 nM	62.3 nM	4.19 nM	21.6 nM
O=C1Nc2ccc(Cl)cc2[C@@](C#CC2CC2)(C(F)(F)F)O1 [EFAVIRENZ]	99.2 nM	> 6340 nM			203 nM				8.32 nM		41.8 nM
Cc1ccnc2c1NC(=O)c1cccnc1N2C1CC1 [NEVIRAPINE]	4710 nM	> 15000 nM	> 15000 nM	> 15000 nM	7320 nM				237 nM	253 nM	1270 nM
